Measurements reported in PubChem BioAssay AID2060509 (Molecular Pharmacology Branch, DTP, NCI, 2025).

System: 485176-168-R4-J1-PDC spheroids with HUVEC/MSC, viability
Assay: Anticancer human tumor 485176-168-R4-J1-PDC patient-derived pancreatic adenocarcinoma cell line growth inhibition [GQUAD]
Conditions: for IC50: curve of first compound; for viability, T/C: stronger effect = lower value
Procedure, shortened: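 Tumor cells were grown as complex spheroids with HUVEC endothelial cells and mesenchymal stem cells as stroma. G-quadruplex stabilizers were combined with targeted agents over half-log dilutions from near the clinical Cmax, or from 10 microM.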

[1] = second compound 0.0316 µM, first compound 0.0316 µM
[2] = second compound 0.0316 µM, first compound 0.1 µM
[3] = second compound 0.0316 µM, first compound 0.316 µM
[4] = second compound 0.0316 µM, first compound 1 µM
[5] = second compound 0.0316 µM, first compound 3.16 µM
[6] = second compound 0.0316 µM, first compound 10 µM
[7] = second compound 0.1 µM, first compound 0.0316 µM
[8] = second compound 0.1 µM, first compound 0.1 µM
[9] = second compound 0.1 µM, first compound 0.316 µM
[10] = second compound 0.1 µM, first compound 1 µM
[11] = second compound 0.1 µM, first compound 3.16 µM
[12] = second compound 0.1 µM, first compound 10 µM
[13] = second compound 0.316 µM, first compound 0.0316 µM
[14] = second compound 0.316 µM, first compound 0.1 µM
[15] = second compound 0.316 µM, first compound 0.316 µM
[16] = second compound 0.316 µM, first compound 1 µM
[17] = second compound 0.316 µM, first compound 3.16 µM
[18] = second compound 0.316 µM, first compound 10 µM
[19] = second compound 1 µM, first compound 0.0316 µM
[20] = second compound 1 µM, first compound 0.1 µM
[21] = second compound 1 µM, first compound 0.316 µM
[22] = second compound 1 µM, first compound 1 µM
[23] = second compound 1 µM, first compound 3.16 µM
[24] = second compound 1 µM, first compound 10 µM
[25] = second compound 3.16 µM, first compound 0.0316 µM
[26] = second compound 3.16 µM, first compound 0.1 µM
[27] = second compound 3.16 µM, first compound 0.316 µM
[28] = second compound 3.16 µM, first compound 1 µM
[29] = second compound 3.16 µM, first compound 3.16 µM
[30] = second compound 3.16 µM, first compound 10 µM
[31] = second compound 10 µM, first compound 0.0316 µM
[32] = second compound 10 µM, first compound 0.1 µM
[33] = second compound 10 µM, first compound 0.316 µM
[34] = second compound 10 µM, first compound 1 µM
[35] = second compound 10 µM, first compound 3.16 µM
[36] = second compound 10 µM, first compound 10 µM
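Note: spheroids exposed to compounds for seven days before readout.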
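Throughout, for viability, T/C: percent viability relative to DMSO vehicle control wells as 100%.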

## Cc1cccc(N(C)C(=O)C2C(O)CCN2c2nc(C)cc(C(F)(F)F)c2C#N)c1 (stereo unspecified) + Cc1[nH]c2ccc(F)cc2c1-c1nc2c3cccnc3c3ncccc3c2[nH]1
Second compound 0.0316 µM
  IC50: > 10000 nM
Second compound 0.1 µM
  IC50: > 10000 nM
Second compound 0.316 µM
  IC50: > 10000 nM
Second compound 1 µM
  IC50: > 10000 nM
Second compound 3.16 µM
  IC50: > 10000 nM
Second compound 10 µM
  IC50: > 10000 nM
[1]
  viability, T/C: 102%
[2]
  viability, T/C: 95.1%
[3]
  viability, T/C: 99.2%
[4]
  viability, T/C: 89%
[5]
  viability, T/C: 94.1%
[6]
  viability, T/C: 99.2%
[7]
  viability, T/C: 85.9%
[8]
  viability, T/C: 95.4%
[9]
  viability, T/C: 93.1%
[10]
  viability, T/C: 99%
[11]
  viability, T/C: 109%
[12]
  viability, T/C: 114%
[13]
  viability, T/C: 93.1%
[14]
  viability, T/C: 108%
[15]
  viability, T/C: 103%
[16]
  viability, T/C: 92.2%
[17]
  viability, T/C: 93.7%
[18]
  viability, T/C: 96.7%
[19]
  viability, T/C: 87%
[20]
  viability, T/C: 100%
[21]
  viability, T/C: 84.6%
[22]
  viability, T/C: 85.3%
[23]
  viability, T/C: 99.8%
[24]
  viability, T/C: 94.1%
[25]
  viability, T/C: 95.5%
[26]
  viability, T/C: 97.1%
[27]
  viability, T/C: 84.5%
[28]
  viability, T/C: 89.2%
[29]
  viability, T/C: 95.1%
[30]
  viability, T/C: 92.1%
[31]
  viability, T/C: 80.3%
[32]
  viability, T/C: 92%
[33]
  viability, T/C: 80.1%
[34]
  viability, T/C: 90%
[35]
  viability, T/C: 78.2%
[36]
  viability, T/C: 99.1%

## CC[C@@]1(O)C(=O)OCc2c1cc1n(c2=O)Cc2cc3c(CN(C)C)c(O)ccc3nc2-1 + Cc1[nH]c2ccc(F)cc2c1-c1nc2c3cccnc3c3ncccc3c2[nH]1
Second compound 0.0316 µM
  IC50: 134 nM
Second compound 0.1 µM
  IC50: 178 nM
Second compound 0.316 µM
  IC50: 89 nM
Second compound 1 µM
  IC50: 125 nM
Second compound 3.16 µM
  IC50: 121 nM
Second compound 10 µM
  IC50: 148 nM
Second compound 0.0316 µM, first compound 0.000999 µM
  viability, T/C: 124%
Second compound 0.0316 µM, first compound 0.00316 µM
  viability, T/C: 107%
Second compound 0.0316 µM, first compound 0.00999 µM
  viability, T/C: 99.4%
[1]
  viability, T/C: 70.6%
Second compound 0.0316 µM, first compound 0.0999 µM
  viability, T/C: 57.5%
[3]
  viability, T/C: 34.4%
Second compound 0.1 µM, first compound 0.000999 µM
  viability, T/C: 85.6%
Second compound 0.1 µM, first compound 0.00316 µM
  viability, T/C: 83.4%
Second compound 0.1 µM, first compound 0.00999 µM
  viability, T/C: 97.1%
[7]
  viability, T/C: 89.8%
Second compound 0.1 µM, first compound 0.0999 µM
  viability, T/C: 59%
[9]
  viability, T/C: 41.1%
Second compound 0.316 µM, first compound 0.000999 µM
  viability, T/C: 106%
Second compound 0.316 µM, first compound 0.00316 µM
  viability, T/C: 94.7%
Second compound 0.316 µM, first compound 0.00999 µM
  viability, T/C: 108%
[13]
  viability, T/C: 75.6%
Second compound 0.316 µM, first compound 0.0999 µM
  viability, T/C: 50.3%
[15]
  viability, T/C: 38.5%
Second compound 1 µM, first compound 0.000999 µM
  viability, T/C: 93.3%
Second compound 1 µM, first compound 0.00316 µM
  viability, T/C: 105%
Second compound 1 µM, first compound 0.00999 µM
  viability, T/C: 118%
[19]
  viability, T/C: 82.9%
Second compound 1 µM, first compound 0.0999 µM
  viability, T/C: 56%
[21]
  viability, T/C: 36.5%
Second compound 3.16 µM, first compound 0.000999 µM
  viability, T/C: 88.1%
Second compound 3.16 µM, first compound 0.00316 µM
  viability, T/C: 99.7%
Second compound 3.16 µM, first compound 0.00999 µM
  viability, T/C: 79.9%
[25]
  viability, T/C: 65.3%
Second compound 3.16 µM, first compound 0.0999 µM
  viability, T/C: 57.2%
[27]
  viability, T/C: 33.8%
Second compound 10 µM, first compound 0.000999 µM
  viability, T/C: 81.5%
Second compound 10 µM, first compound 0.00316 µM
  viability, T/C: 101%
Second compound 10 µM, first compound 0.00999 µM
  viability, T/C: 68.3%
[31]
  viability, T/C: 77.2%
Second compound 10 µM, first compound 0.0999 µM
  viability, T/C: 58.2%
[33]
  viability, T/C: 34%

## CC1COCCN1c1cc(C2(O)CC3CCC(C2)O3)c2cnn(-c3ccn[nH]3)c2n1 (stereo unspecified) + Cc1cnc(CNC(=O)c2c(=O)c3ccc(N4CCCN(C)CC4)nc3n3c2sc2ccccc23)cn1
Second compound 0.0316 µM
  IC50: < 31.6 nM
Second compound 0.1 µM
  IC50: < 31.6 nM
Second compound 0.316 µM
  IC50: < 31.6 nM
Second compound 1 µM
  IC50: < 31.6 nM
Second compound 3.16 µM
  IC50: < 31.6 nM
Second compound 10 µM
  IC50: < 31.6 nM
[1]
  viability, T/C: 48.9%
[2]
  viability, T/C: 17.3%
[3]
  viability, T/C: 11%
[4]
  viability, T/C: 8.41%
[5]
  viability, T/C: 10.1%
[6]
  viability, T/C: 8.06%
[7]
  viability, T/C: 22.6%
[8]
  viability, T/C: 14.5%
[9]
  viability, T/C: 9.1%
[10]
  viability, T/C: 9.8%
[11]
  viability, T/C: 11.5%
[12]
  viability, T/C: 8.77%
[13]
  viability, T/C: 15.5%
[14]
  viability, T/C: 11.7%
[15]
  viability, T/C: 10.3%
[16]
  viability, T/C: 9.55%
[17]
  viability, T/C: 10.9%
[18]
  viability, T/C: 9.41%
[19]
  viability, T/C: 13.8%
[20]
  viability, T/C: 12.3%
[21]
  viability, T/C: 9.3%
[22]
  viability, T/C: 7.89%
[23]
  viability, T/C: 9.58%
[24]
  viability, T/C: 7.69%
[25]
  viability, T/C: 17.7%
[26]
  viability, T/C: 11.3%
[27]
  viability, T/C: 10.5%
[28]
  viability, T/C: 9.3%
[29]
  viability, T/C: 8.86%
[30]
  viability, T/C: 8.53%
[31]
  viability, T/C: 13.8%
[32]
  viability, T/C: 11.2%
[33]
  viability, T/C: 10.2%
[34]
  viability, T/C: 9.98%
[35]
  viability, T/C: 9.05%
[36]
  viability, T/C: 7.21%
